Measured values reported in paper PMC8820820, “Feasibility and safety of targeting mitochondria for cancer therapy – preclinical characterization of gamitrinib, a first-in-class, mitochondriaL-targeted small molecule Hsp90 inhibitor” (Cancer Biology & Therapy, 2022).
Read-outs that look alike come from different tables or passages of the source.

What was measured:
[1] = target: Kv1.5 (Homo sapiens, UniProt P22460); assay: Ion channel screening; format: cell-based; settings: 10 µM
From the text: Ion channel screening. […] The parameters measured were the maximum inward current evoked on stepping to -20 mV from the 1st and 26th pulse. Human Kv4.3/KChIP2 currents were evoked from a holding potential of -80 mV by a series of four 500 msec pulses to 0 mV using a 1000 msec interval between pulses. The parameter measured was the amplitude of the outward current 50 msec after the onset of the 4th voltage step to 0 mV. […] Human Kv1.5 currents were evoked by a single pulse from a holding potential of -80 mV to a potential of 0 mV for 4 sec before returning to -80 mV. The parameters measured were the maximum amplitude of outward currents evoked at the beginning of the voltage pulse and at the end of the voltage step from -80 mV to 0 mV. Human KCNQ1/minK currents were evoked by a single pulse delivered from a holding potential of -80 mV to +60 mV for 4 sec before returning to -80 mV. The parameter measured was the maximum outward current evoked on stepping to +60 mV from the holding potential of -80 mV. hERG currents were evoked by a three-pulse protocol where voltage was first stepped to +40 mV for two sec from a holding potential of –80 mV to inactivate hERG channels. […] The parameter measured was the maximum inward current evoked upon stepping to -110 mV from the holding potential of -30 mV. […]

[2] = target: T1, HCN4 (Homo sapiens, UniProt Q9Y3Q4); assay: Ion channel screening; format: cell-based; settings: 10 µM
T1 sequence (Q9Y3Q4 1-1203): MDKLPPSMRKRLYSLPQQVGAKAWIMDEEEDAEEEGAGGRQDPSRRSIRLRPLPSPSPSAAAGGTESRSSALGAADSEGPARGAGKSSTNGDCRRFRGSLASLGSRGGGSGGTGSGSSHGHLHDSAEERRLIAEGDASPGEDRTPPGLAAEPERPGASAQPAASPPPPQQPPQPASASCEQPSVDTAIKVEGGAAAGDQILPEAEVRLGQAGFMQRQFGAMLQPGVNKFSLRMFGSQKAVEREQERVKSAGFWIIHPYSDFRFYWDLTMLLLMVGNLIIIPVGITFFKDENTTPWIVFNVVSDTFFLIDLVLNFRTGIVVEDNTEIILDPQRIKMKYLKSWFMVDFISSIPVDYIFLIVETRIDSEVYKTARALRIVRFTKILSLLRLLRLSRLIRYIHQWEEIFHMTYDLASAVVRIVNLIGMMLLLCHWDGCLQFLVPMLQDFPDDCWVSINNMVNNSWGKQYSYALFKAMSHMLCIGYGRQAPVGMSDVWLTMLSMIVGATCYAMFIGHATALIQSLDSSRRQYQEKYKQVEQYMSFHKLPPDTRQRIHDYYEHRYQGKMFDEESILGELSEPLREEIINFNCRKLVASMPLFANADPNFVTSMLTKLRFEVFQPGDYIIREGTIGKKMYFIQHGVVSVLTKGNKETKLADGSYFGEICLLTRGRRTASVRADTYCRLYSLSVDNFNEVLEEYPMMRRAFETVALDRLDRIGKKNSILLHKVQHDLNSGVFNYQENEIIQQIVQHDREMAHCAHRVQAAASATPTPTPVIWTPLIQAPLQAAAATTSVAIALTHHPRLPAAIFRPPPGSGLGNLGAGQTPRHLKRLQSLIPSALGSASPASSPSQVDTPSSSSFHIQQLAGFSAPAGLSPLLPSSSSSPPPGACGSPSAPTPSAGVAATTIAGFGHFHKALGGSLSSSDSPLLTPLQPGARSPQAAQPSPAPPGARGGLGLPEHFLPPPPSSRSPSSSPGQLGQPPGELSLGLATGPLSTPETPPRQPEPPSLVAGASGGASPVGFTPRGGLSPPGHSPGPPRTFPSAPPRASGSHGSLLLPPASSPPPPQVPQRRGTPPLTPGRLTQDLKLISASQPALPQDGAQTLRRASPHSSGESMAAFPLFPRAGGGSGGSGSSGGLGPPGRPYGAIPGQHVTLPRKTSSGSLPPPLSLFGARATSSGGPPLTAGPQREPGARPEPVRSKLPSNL

[3] = design: species or system beagle dogs; settings: dog, in vivo
Protocol: Eighteen male and female (5–6 mo old) purebred beagle dogs (Cumberland, VA) were acclimated for 47 d (20°C to 26°C, relative humidity 30–70%, 10 or greater air changes/h, and a 12-h light/dark cycle) prior to study initiation. Animals were given water ad libitum and Certified Canine Diet #5007 (PMI Nutrition International Certified LabDiet®) for 4 to 5 h each day. At study initiation, animal body weights ranged from 8.6 to 11.5 kg for males and 6.0 to 9.4 kg for females. At least 1 week prior to initiation of dosing, animals were fasted overnight, anesthetized, and a catheter attached to a subcutaneous vascular access port was surgically implanted into a jugular vein. Animals were acclimated to infusion jackets prior to catheter implantation surgery. Animals were infused with sterile saline at a dose rate of 5 mL/h when the vascular access ports were accessed and when animals were connected to the infusion system (except when dosed with the test or vehicle control article). The patency of each catheter was checked as needed. Prednisolone tablets were administered orally at 2 mg/kg the night prior to dosing. Diphenhydramine (5 mg/kg; IM injection 0.1 mL/kg, 50 mg/mL) was administered prior to dosing and post the start of infusion (d 1 only). Male and female dogs received dose levels of Gamitrinib of 1.25, 3.33 and 6.25 mg/kg/dose formulated as indicated above during a 1 h infusion on d 1, 8, 11, 15, 18, 22, 25, 29, 32, and 36 at a volume of 2 mL/kg. The vehicle control was as above. […] Dosing was stopped, and 23 of 24 animals were administered additional diphenhydramine, 11 were administered Flunixin meglumine and buprenorphine, and 6 were administered acepromazine. Symptoms subsided in all animals after completion of these interventions. As a result of these observations, the polysorbate levels, which were increased from 0.025% (w/v) to 0.125% (w/v) to minimize precipitation, were returned to the original concentrations; 2 mg/kg prednisone was administered orally the night prior to dosing; and the diphenhydramine pretreatment dose was updated to 5 mg/kg 15 to 30 min prior to dosing. Detailed observations were conducted for each animal up to seven times during the predose phase, prior to dosing on d 1, 8, 15, 22, 29, and 36 of the dosing phase, and on d 1, 7, and 14 of the recovery phase. Blood samples (1 mL) were collected via the cephalic vein 5, 15, and 30 min and 1, 4, 8, and 24 h post the end of infusion on d 8 and 36 of the dosing phase. Formalin-fixed and paraffin-embedded tissue samples collected at the end of the study (d 39) were processed for histologic examination.

[4] = target: T2, CYP2C8 (Homo sapiens, UniProt P10632); settings: microsomes
T2 sequence (P10632 1-490): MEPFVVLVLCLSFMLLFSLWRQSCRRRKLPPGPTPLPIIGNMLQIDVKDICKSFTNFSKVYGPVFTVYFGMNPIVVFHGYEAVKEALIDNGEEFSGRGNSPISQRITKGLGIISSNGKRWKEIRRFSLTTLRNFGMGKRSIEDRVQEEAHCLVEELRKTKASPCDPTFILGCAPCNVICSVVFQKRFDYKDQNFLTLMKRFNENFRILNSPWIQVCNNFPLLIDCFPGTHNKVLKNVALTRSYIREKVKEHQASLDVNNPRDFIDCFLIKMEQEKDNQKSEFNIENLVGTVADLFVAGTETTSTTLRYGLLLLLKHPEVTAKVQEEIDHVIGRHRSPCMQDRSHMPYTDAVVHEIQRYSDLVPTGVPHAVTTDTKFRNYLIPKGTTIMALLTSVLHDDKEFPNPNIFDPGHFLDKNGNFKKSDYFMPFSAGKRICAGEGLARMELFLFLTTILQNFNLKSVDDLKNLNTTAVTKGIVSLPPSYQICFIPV
Protocol: CYP inhibition in liver microsomes. […] Samples were analyzed for metabolite formation by LC-MS/MS. The results were expressed using the peak area ratio of analyte to internal standard, based on the calibration curves.
Where Range=fitted uninhibited value, s=slope factor, x=inhibitor concentration, y=% control activity.

[5] = tested on: NCI 60 cell-line screen; design: method as in PMID 20876793, PMID 21285984; settings: read-out: IC50, anticancer activity, cited from earlier work

Sequence of Kv1.5 (P22460 whole entry): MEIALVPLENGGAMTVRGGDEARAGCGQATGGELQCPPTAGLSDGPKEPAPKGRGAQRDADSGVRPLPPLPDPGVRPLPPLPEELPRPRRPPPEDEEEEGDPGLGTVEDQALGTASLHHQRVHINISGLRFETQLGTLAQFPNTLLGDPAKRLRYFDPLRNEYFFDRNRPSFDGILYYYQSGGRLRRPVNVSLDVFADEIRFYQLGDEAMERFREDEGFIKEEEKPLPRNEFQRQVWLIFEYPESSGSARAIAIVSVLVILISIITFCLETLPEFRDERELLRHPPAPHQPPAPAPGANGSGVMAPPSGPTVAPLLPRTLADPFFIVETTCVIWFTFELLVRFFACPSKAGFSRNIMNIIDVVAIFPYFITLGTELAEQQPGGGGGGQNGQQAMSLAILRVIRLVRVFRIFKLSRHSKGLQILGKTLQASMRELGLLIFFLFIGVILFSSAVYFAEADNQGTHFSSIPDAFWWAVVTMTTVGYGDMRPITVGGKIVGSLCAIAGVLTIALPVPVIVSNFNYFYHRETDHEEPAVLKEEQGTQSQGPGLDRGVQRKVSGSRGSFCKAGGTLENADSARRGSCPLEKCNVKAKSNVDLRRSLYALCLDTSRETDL

COC1C=CC=C(C)C(=O)NC2=CC(=O)C(NCCCCCC[P+](c3ccccc3)(c3ccccc3)c3ccccc3)=C(CC(C)CC(OC)C(O)C(C)C=C(C)C1OC(N)=O)C2=O.F[P-](F)(F)(F)(F)F (centres unmarked) [Gamitrinib]
inhibition of Kv1.5 currents [1]: 6.6 ± 1.3%
inhibition of HCN4 currents [2]: −0.2 ± 3.7%
AUC0–24 ([3]; 3.33 mg/kg): 1740 ± 713 ng·h/mL
Cmax ([3]; 3.33 mg/kg): 560 ± 404 ng/mL
AUC0–24 ([3]; 6.25 mg/kg): 3290 ± 1090 ng·h/mL
Cmax ([3]; 6.25 mg/kg): 1260 ± 556 ng/mL
IC50 [4]: 8 µM
IC50 ([5]; NCI 60 cell-line screen, all lines): 160 to 29000 nM
IC50 ([5]; breast adenocarcinoma cell lines): 160 to 3300 nM
IC50 ([5]; colon adenocarcinoma cell lines): 350 to 29000 nM
IC50 ([5]; melanoma cell lines): 360 to 2700 nM
